Literature values as cited in publication PMC7904743, “WIDOCK: a reactive docking protocol for virtual screening of covalent inhibitors” (Journal of Computer-Aided Molecular Design, 2021).
Read-outs that look alike come from different tables or passages of the source.

Tests used:
[1] = tested on: OTUB2; settings: OTUB2 protein labeling; experimental actives if % labeling higher than 50%; cited from earlier work
[2] = tested on: NUDT7; settings: protein labeling at 200 μM; experimental actives if % labeling higher than 50%; cited from earlier work
[3] = thiol reactivity, cited from earlier work
[4] = natural log of average kinetic rate constant
[5] = natural log of average rate constant

Row | SMILES | OTUB2 % labeling [1] | NUDT7 % labeling [2] | ln(avg k) [3, 4] | ln(avg k) [3, 5]
1 | CN(Cc1cccc(F)c1)C(=O)CCl [PCM-0102747, CN(Cc1cccc(F)c1)C(=O)CCl] | 0% | 0% | -16.175 | -16.175
2 | CC(C)N1CCC(NC(=O)CCl)CC1 [PCM-0102748, CC(C)N1CCC(NC(=O)CCl)CC1] | 0% | 0% | -15.792 | -15.792
3 | O=C(CCl)N1CCOCC1 [PCM-0102749, O=C(CCl)N1CCOCC1] | 0% | 0% | -17.466 | -17.466
4 | CC1CN(c2ccc(NC(=O)CCl)cc2)CC(C)O1 (centres unmarked) [PCM-0102750, CC1CN(c2ccc(NC(=O)CCl)cc2)CC(C)O1] | 24% | 0% | -15.710 | -15.710
5 | O=C(CCl)N1CCCCCC1 [PCM-0102751, O=C(CCl)N1CCCCCC1] | 0% | 0% | -16.327 | -16.327
6 | O=C(CCl)NC(=O)NCc1cccs1 [PCM-0102753, O=C(CCl)NC(=O)NCc1cccs1] | 23% | 0% | -15.984 | -15.984
7 | CC(NC(=O)CCl)C(=O)N(C)C (centres unmarked) [PCM-0102754, CC(NC(=O)CCl)C(=O)N(C)C] | 0% | 0% | -16.933 | -16.933
8 | O=C(CCl)N(c1ccccc1)C1CCS(=O)(=O)C1 (centres unmarked) [PCM-0102755, O=C(CCl)N(c1ccccc1)C1CCS(=O)(=O)C1] | 0% | 17% | -15.253 | -15.253
9 | CN(CC1COc2ccccc2O1)C(=O)CCl (centres unmarked) [PCM-0102756, CN(CC1COc2ccccc2O1)C(=O)CCl] | 6% | 16% | -15.581 | -15.581
10 | NC(=O)c1ccccc1NC(=O)CCl [PCM-0102758, NC(=O)c1ccccc1NC(=O)CCl] | 0% | 0% | -15.095 | -15.095
11 | Cc1ccc(S(=O)(=O)N2CCN(C(=O)CCl)CC2)cc1 [PCM-0102759, Cc1ccc(S(=O)(=O)N2CCN(C(=O)CCl)CC2)cc1] | 0% | 12% | -15.424 | -15.424
12 | O=C(CCl)N(C1CCCCC1)C1CCS(=O)(=O)C1 (centres unmarked) [PCM-0102760, O=C(CCl)N(C1CCCCC1)C1CCS(=O)(=O)C1] | 0% | 8% | -15.274 | -15.274
13 | O=C(CCl)Nc1cc(Cl)ccc1F [PCM-0102762, O=C(CCl)Nc1cc(Cl)ccc1F] | 13% | 0% | -15.818 | -15.818
14 | COc1ccc(Cl)cc1C(=O)NNC(=O)CCl [PCM-0102763, COc1ccc(Cl)cc1C(=O)NNC(=O)CCl] | 64% | 10% | -16.746 | -16.746
15 | COC(=O)c1ccc(Cl)c(NC(=O)CCl)c1 [PCM-0102764, COC(=O)c1ccc(Cl)c(NC(=O)CCl)c1] | 29% | 7% | -16.022 | -16.022
16 | CSc1ccc(NC(=O)CCl)cc1 [PCM-0102772, CSc1ccc(NC(=O)CCl)cc1] | 28% | 13% | -15.893 | -15.893
17 | CC(C)(C)C(NC(=O)CCl)c1cccs1 (centres unmarked) [PCM-0102773, CC(C)(C)C(NC(=O)CCl)c1cccs1] | 0% | 9% | -16.457 | -16.457
18 | Cc1ccc(-c2nnc(C)[nH]2)c(NC(=O)CCl)c1 [PCM-0102775, Cc1ccc(-c2nnc(C)[nH]2)c(NC(=O)CCl)c1] | 0% | 13% | -16.632 | -16.632

Row | SMILES | OTUB2 % labeling [1] | NUDT7 % labeling [2] | ln(avg k) [3, 4] | ln(avg k) [3, 5]
19 | O=C(CCl)NNC(=O)C1CC1 [PCM-0102776, O=C(CCl)NNC(=O)C1CC1] | 23% | 0% | -17.370 | -17.370
20 | Cc1noc(C)c1CNC(=O)CCl [PCM-0102780, Cc1noc(C)c1CNC(=O)CCl] | 0% | 11% | -16.766 | -16.766
21 | O=C(CCl)N1CCC(C(=O)N2CCCCCC2)CC1 [PCM-0102781, O=C(CCl)N1CCC(C(=O)N2CCCCCC2)CC1] | 0% | 0% | -15.500 | -15.500
22 | CN(C(=O)CCl)C(C)(C)C#N [PCM-0102782, CN(C(=O)CCl)C(C)(C)C#N] | 0% | 0% | -16.514 | -16.514
23 | CC(c1ccc(F)cc1)N(C)C(=O)CCl (centres unmarked) [PCM-0102783, CC(c1ccc(F)cc1)N(C)C(=O)CCl] | 0% | 19% | -16.224 | -16.224
24 | O=C(CCl)Nc1nc(-c2cccs2)cs1 [PCM-0102784, O=C(CCl)Nc1nc(-c2cccs2)cs1] | 7% | 77% | -16.029 | -16.029
25 | Cc1ccsc1CN(C)C(=O)CCl [PCM-0102785, Cc1ccsc1CN(C)C(=O)CCl] | 0% | 20% | -15.849 | -15.849
26 | CC(C)(C)OC(=O)N1CCN(C(=O)CCl)CC1 [PCM-0102786, CC(C)(C)OC(=O)N1CCN(C(=O)CCl)CC1] | 0% | 0% | -15.946 | -15.946
27 | CN(Cc1ccccc1F)C(=O)CCl [PCM-0102787, CN(Cc1ccccc1F)C(=O)CCl] | 0% | 0% | -16.194 | -16.194
28 | CC1CC(C)CN(C(=O)CCl)C1 (centres unmarked) [PCM-0102789, CC1CC(C)CN(C(=O)CCl)C1] | 8% | 0% | -16.705 | -16.705
29 | O=C(CCl)NCc1cc(F)cc(F)c1 [PCM-0102790, O=C(CCl)NCc1cc(F)cc(F)c1] | 0% | 0% | -16.548 | -16.548
30 | CC(c1nc2ccccc2s1)N(C)C(=O)CCl (centres unmarked) [PCM-0102793, CC(c1nc2ccccc2s1)N(C)C(=O)CCl] | 19% | 0% | -15.755 | -15.755
31 | O=C(CCl)NCC1CCCc2ccccc21 (centres unmarked) [PCM-0102794, O=C(CCl)NCC1CCCc2ccccc21] | 34% | 0% | -16.479 | -16.479
32 | CC1CN(C(=O)CCl)CC(C)O1 (centres unmarked) [PCM-0102796, CC1CN(C(=O)CCl)CC(C)O1] | 0% | 0% | -15.522 | -15.522
33 | O=C(CCl)Nc1cccc(Cl)c1Cl [PCM-0102797, O=C(CCl)Nc1cccc(Cl)c1Cl] | 0% | 15% | -15.881 | -15.881
34 | CC(NC(=O)CCl)c1ccco1 (centres unmarked) [PCM-0102798, CC(NC(=O)CCl)c1ccco1] | 19% | 14% | -16.737 | -16.737
35 | Cc1cc(Br)ccc1NC(=O)CCl [PCM-0102799, Cc1cc(Br)ccc1NC(=O)CCl] | 61% | 24% | -16.305 | -16.305
